The subject of this data set is CD8+ T cell depleted peripheral blood mononuclear cells.

Structures are written as SMILES. Numbered stars: 1 amine (or outer) side, 2 acyl side, 3 side chain; on linkers, the order of the positions; unused ones are H or OH. Square brackets hold non-standard residues; d marks the D form. Side chains are listed from the residue outwards. Peptide text beside a SMILES is read from it. * marks the point of attachment. C18 diacid = O=C(O)CCCCCCCCCCCCCCCCC(=O)*; γGlu = O=C(O)[C@H](CCC(=O)[*:2])N[*:1]; AEEA = NCCOCCOCC(=O)O; Aib = CC(C)(N)C(=O)O

Procedure: The purpose of this study is to determine the relative potential for clinical immunogenicity of a compound.
CD8+ T cell depleted peripheral blood mononuclear cells are prepared and labeled with Carboxyfluorescein Diacetate Succinimidyl Ester (CFSE, Invitrogen) from a cohort of 10 healthy donors. […] Cultures are incubated for 7 days at 37° C. with 5% CO2. On day 7, samples are analyzed by flow cytometry using High Throughput Sampler (HTS). Data is analyzed using FlowJo® Software (FlowJo, LLC, TreeStar).

As to `CC[C@H](C)[C@H](NC(=O)[C@H](CC(C)C)NC(=O)[C@H](Cc1ccc(O)cc1)NC(=O)[C@H](CCC(=O)O)NC(=O)[C@@H](NC(=O)[C@H](Cc1ccccc1)NC(=O)[C@H](C)NC(=O)C(C)(C)NC(=O)[C@H](CCC(N)=O)NC(=O)[C@H](C)NC(=O)[C@H](CCCCNC(=O)COCCOCCNC(=O)COCCOCCNC(=O)CC[C@H](NC(=O)CCCCCCCCCCCCCCCCC(=O)O)C(=O)O)NC(=O)[C@H](CCCCN)NC(=O)[C@H](CC(=O)O)NC(=O)[C@H](CC(C)C)NC(=O)[C@H](CC(C)C)NC(=O)[C@@H](NC(=O)[C@H](CO)NC(=O)[C@H](Cc1ccc(O)cc1)NC(=O)[C@H](CC(=O)O)NC(=O)[C@H](CO)NC(=O)[C@@H](NC(=O)[C@H](Cc1ccccc1)NC(=O)[C@@H](NC(=O)CNC(=O)[C@H](CCC(=O)O)NC(=O)C(C)(C)NC(=O)[C@@H](N)Cc1ccc(O)cc1)[C@@H](C)O)[C@@H](C)O)[C@@H](C)CC)[C@@H](C)CC)C(=O)N[C@@H](C)C(=O)NCC(=O)NCC(=O)N1CCC[C@H]1C(=O)N[C@@H](CO)C(=O)N[C@@H](CO)C(=O)NCC(=O)N[C@@H](C)C(=O)N1CCC[C@H]1C(=O)N1CCC[C@H]1C(=O)N1CCC[C@H]1C(=O)N[C@@H](CO)C(N)=O` [Example 316] (H-Y[Aib]EGTFTSDYSILLDKK([AEEA-AEEA-γGlu-C18 diacid])AQ[Aib]AFIEYLIAGGPSSGAPPPS-NH2), the “frequency of positive CD+ T cell response (CDI>2.5)” value is recorded as “low”.

Source of the values: patent US12252524B2, “GIP/GLP1 co-agonist compounds” (Eli Lilly and Company, priority 2018, dated 2025).
